Laboratory results: patent US9481677B2, “Biaryl ether sulfonamides and their use as therapeutic agents” (XENON PHARMACEUTICALS INC., priority 2011, dated 2016)

Target: Nav1.7 (Homo sapiens (Human), UniProt Q15858)
Test: Patch voltage clamp electrophysiology, block of inactivated-state Nav1.7 in HEK-293 cells
Format: cell-based
Conditions: affinity for the inactivated state; HEK-293 cells with β1 subunit; held at -60 mV; read-out: NaV1.7 (IC50 class)
Protocol: Patch voltage clamp electrophysiology allows for the direct measurement and quantification of block of voltage-gated sodium channels (Nav's), and allows the determination of the time- and voltage-dependence of block which has been interpreted as differential binding to the resting, open, and inactivated states of the sodium channel (Hille, B., Journal of General Physiology (1977), 69: 497-515).
The following patch voltage clamp electrophysiology studies were performed on representative compounds of the invention using human embryonic kidney cells (HEK), permanently transfected with an expression vector containing the full-length cDNA coding for the desired human sodium channel α-subunit, grown in culture media containing 10% FBS, 1% PSG, and 0.5 mg/mL G418 at 37° C. with 5% CO2. […] Nav1.7 and Nav1.5 cDNAs (NM_002977 and AC137587; SCN5A, respectively) were stably expressed in HEK-293 cells. The β1 subunit was coexpressed only in the Nav1.7 cell line.
Sodium currents were measured using the patch clamp technique in the whole-cell configuration using either a PatchXpress automated voltage clamp or manually using an Axopatch 200B (Axon Instruments) or Model 2400 (A-M systems) amplifier. […] The pipette was filled with a solution comprised of: 5 mM NaCl, 10 mM CsCl, 120 mM CsF, 0.1 mM CaCl2, 2 mM MgCl2, 10 mM HEPES, 10 mM EGTA; and adjusted to pH 7.2 with CsOH. The external solution had the following composition: 140 mM NaCl, 5 mM KCl, 2 mM CaCl2, 1 mM MgCl2, 10 mM HEPES; and adjusted to pH 7.4 with NaOH. In some studies, the external sodium was reduced by equimolar replacement with choline. Osmolarity in the CsF internal and NaCl external solutions was adjusted to 300 mOsm/kg and 310 mOsm/kg with glucose, respectively. All recordings were performed at ambient temperature in a bath chamber with a volume of 150 μL. Control sodium currents were measured in 0.5% DMSO. Controls and representative compounds of the invention were applied to the recording chamber through a 4-pinch or 8-pinch valve bath perfusion system manufactured by ALA Scientific Instruments.
Currents were recorded at 40 kHz sampling frequency, filtered at […], and stored using a Digidata-1322A analogue/digital interface with the pClamp software (Axon Instruments). Series resistance compensation was applied (60-80%). […] All statistics in this study are given as mean±SD.
The membrane potential was maintained at a voltage where inactivation of the channel is complete (which was −60 mV for both Nav1.7 and Nav1.5). The voltage is then stepped back to a very negative (Vhold=−150 mV) voltage for 20 ms and then a test pulse is applied to quantify the compound block. […] The percent decrease in sodium current following wash-on of compound was taken as the percent block of sodium channels.
The Example numbers provided in Table 1 and Table 2 correspond to the Examples herein.

Sequence of Nav1.7 (Q15858 other isoform, or with tags, fused parts or gaps): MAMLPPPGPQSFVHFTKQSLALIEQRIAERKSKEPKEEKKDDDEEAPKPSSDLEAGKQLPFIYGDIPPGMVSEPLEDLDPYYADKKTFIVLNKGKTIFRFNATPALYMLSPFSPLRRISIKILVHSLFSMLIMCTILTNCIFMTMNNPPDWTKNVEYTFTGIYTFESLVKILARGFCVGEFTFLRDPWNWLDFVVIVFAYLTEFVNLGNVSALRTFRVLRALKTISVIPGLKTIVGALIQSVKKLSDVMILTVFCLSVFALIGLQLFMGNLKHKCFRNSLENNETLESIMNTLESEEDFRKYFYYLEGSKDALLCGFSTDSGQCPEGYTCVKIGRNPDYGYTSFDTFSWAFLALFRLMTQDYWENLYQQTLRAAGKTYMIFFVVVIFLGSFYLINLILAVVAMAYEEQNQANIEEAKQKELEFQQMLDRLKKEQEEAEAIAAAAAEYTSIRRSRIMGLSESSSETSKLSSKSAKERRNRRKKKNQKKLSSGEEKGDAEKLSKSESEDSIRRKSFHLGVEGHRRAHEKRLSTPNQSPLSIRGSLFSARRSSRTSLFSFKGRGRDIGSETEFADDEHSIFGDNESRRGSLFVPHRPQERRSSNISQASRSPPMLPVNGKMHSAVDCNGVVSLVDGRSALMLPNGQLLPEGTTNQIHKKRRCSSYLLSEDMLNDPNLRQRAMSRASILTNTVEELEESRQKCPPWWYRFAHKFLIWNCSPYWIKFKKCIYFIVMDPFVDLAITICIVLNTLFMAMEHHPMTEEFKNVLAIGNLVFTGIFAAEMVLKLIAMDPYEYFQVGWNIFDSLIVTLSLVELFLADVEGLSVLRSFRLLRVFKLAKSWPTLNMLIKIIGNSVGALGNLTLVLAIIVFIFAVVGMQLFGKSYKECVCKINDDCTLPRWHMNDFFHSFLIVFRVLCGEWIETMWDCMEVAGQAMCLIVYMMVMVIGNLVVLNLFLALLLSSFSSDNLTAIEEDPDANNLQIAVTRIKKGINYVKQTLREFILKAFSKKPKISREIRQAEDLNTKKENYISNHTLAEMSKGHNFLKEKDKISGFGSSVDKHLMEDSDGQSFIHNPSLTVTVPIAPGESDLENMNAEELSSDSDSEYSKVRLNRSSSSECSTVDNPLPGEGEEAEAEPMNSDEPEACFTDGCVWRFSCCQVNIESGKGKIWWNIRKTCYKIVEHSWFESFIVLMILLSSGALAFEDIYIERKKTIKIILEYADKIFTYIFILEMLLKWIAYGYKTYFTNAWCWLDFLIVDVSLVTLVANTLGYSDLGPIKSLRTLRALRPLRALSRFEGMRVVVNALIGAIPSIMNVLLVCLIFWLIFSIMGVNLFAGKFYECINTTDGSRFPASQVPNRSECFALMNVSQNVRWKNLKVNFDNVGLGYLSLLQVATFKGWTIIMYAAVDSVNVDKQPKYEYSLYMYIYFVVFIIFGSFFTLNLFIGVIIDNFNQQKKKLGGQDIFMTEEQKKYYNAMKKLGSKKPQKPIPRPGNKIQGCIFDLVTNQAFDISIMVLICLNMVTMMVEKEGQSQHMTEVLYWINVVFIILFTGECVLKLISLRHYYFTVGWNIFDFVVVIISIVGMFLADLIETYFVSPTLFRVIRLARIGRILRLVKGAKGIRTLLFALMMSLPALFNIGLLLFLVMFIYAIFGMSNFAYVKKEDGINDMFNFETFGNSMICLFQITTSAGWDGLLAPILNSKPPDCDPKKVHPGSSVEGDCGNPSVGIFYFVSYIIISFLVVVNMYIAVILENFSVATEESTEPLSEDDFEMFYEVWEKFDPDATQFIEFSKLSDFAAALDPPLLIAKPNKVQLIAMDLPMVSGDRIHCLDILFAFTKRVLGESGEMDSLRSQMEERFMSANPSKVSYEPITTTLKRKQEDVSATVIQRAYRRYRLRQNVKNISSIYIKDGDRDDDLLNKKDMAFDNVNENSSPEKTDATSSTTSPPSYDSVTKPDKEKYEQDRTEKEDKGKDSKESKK
Sequence of Nav1.7 (Q07699 19-218 partner): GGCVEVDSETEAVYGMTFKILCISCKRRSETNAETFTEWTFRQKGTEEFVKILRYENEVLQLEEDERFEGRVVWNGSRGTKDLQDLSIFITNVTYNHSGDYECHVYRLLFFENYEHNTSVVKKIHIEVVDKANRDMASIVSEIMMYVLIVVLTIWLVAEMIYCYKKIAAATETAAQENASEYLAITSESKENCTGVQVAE

Structure (SMILES)	IC50 [µM]
O=C1Cc2cc(-c3cc(Cl)ccc3Oc3cc(F)c(S(=O)(=O)Nc4ncns4)cc3F)ccc2N1 [Example 77, 4-(4-chloro-2-(2-oxoindolin-5-yl)phenoxy)-2,5-difluoro-N-(1,2,4-thiadiazol-5-yl)benzenesulfonamide]	≤ 0.1
O=c1[nH]c2cc(-c3cc(Cl)ccc3Oc3ccc(S(=O)(=O)Nc4ncccn4)cc3F)ccc2o1 [Example 79, 4-(4-chloro-2-(2-oxo-2,3-dihydrobenzo[d]oxazol-5-yl)phenoxy)-3-fluoro-N-(pyrimidin-2-yl)benzenesulfonamide]	≤ 0.1

Next, values leading:

IC50 [µM]	Structure (SMILES)
≤ 0.1	Nc1noc2ccc(-c3cc(F)ccc3Oc3cc(F)c(S(=O)(=O)Nc4ncns4)cc3F)cc12 [Example 80, 4-(2-(3-aminobenzo[d]isoxazol-5-yl)-4-fluorophenoxy)-2,5-difluoro-N-(1,2,4-thiadiazol-5-yl)benzenesulfonamide]
≤ 0.1	Cc1ccc(Oc2cc(F)c(S(=O)(=O)Nc3ncns3)cc2F)c(-c2ccc3oc(=O)[nH]c3c2)c1 [Example 82, 2,5-difluoro-4-(4-methyl-2-(2-oxo-2,3-dihydrobenzo[d]oxazol-5-yl)phenoxy)-N-(1,2,4-thiadiazol-5-yl)benzenesulfonamide]
≤ 0.1	CN(C)c1noc2ccc(-c3cc(Cl)ccc3Oc3cc(F)c(S(=O)(=O)Nc4ncns4)cc3F)cc12 [Example 98, 4-(4-chloro-2-(3-(dimethylamino)benzo[d]isoxazol-5-yl)phenoxy)-2,5-difluoro-N-(1,2,4-thiadiazol-5-yl)benzenesulfonamide]
